{
  "source": "patent US7105170B2",
  "about": "“Latent human tuberculosis model, diagnostic antigens, and methods of use” (The United States of America as represented by the …, priority 2001, dated 2006)",
  "origin": "cited, not measured here",
  "test_system": "M. tuberculosis bacilli",
  "settings": "non-replicating persistent lower oxygen state (NRP2)",
  "data": [
    {"smiles": "O=C(O)c1cn(C2CC2)c2cc(N3CCNCC3)c(F)cc2c1=O", "note": "[ciprofloxicin]", "values": [
      {"measurement": "alterations in drug susceptibility", "value": "resistant"}
    ]},
    {"smiles": "Cc1ncc([N+](=O)[O-])n1CCO", "note": "[metronidazole]", "values": [
      {"measurement": "alterations in drug susceptibility", "value": "sensitive"}
    ]}
  ]
}
